In patent publication US10172814B2, “Substituted pyridyl-cycloalkyl-carboxylic acids, compositions containing them and medical uses thereof” (BAYER PHARMA AKTIENGESELLSCHAFT, priority 2014, dated 2019) one finds IC50 data, which are given here for 27 compounds.

Molecules are shown by their SMILES.

For the assay, the target named is human PTGES (Homo sapiens (Human), UniProt O14684). Put plainly: Human PTGES biochemical enzyme inhibition assay (conversion of PGH2 to PGE2, TR-FRET). The note with it: Enzymatic conversion of PGH2 to PGE2; read-out: Human PTGES IC50. The essentials: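 FLAG-tagged human PTGES from Hi-5 insect cells preincubated 15–20 min with compound in pH 7.2 phosphate buffer with 2.5 mM reduced glutathione; reaction started with 8 nM PGH2 final, stopped with SnCl2/KF.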
Chain of human PTGES (O14684 whole entry): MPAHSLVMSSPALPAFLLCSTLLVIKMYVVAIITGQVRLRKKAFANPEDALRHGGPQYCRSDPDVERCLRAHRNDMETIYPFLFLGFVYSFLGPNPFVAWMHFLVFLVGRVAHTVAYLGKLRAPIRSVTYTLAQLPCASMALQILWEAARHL

Turning to `Cc1c(NC(=O)C(c2ccc(-c3cncc(Cl)c3)c(F)c2)C2CCCC2)cccc1C(C)CC(=O)O` (single isomer, unassigned; stereoisomer 3) [Example 128, 3-[3-({[4-(5-Chloropyridin-3-yl)-3-fluorophenyl](cyclopentyl)acetyl}amino)-2-methylphenyl]butanoic acid, Stereoisomer 3], the IC50 was 1730 nM.

On to `Cc1c(CCC(=O)O)cccc1NC(=O)C(c1ccc(-c2cncc(OC(F)F)c2)cc1)C1CCCC1` (racemic) [Example 28, (R/S) 3-{3-[(Cyclopentyl{4-[5-(difluoromethoxy)pyridin-3-yl]phenyl}acetyl)amino]-2-methylphenyl}propanoic acid], for which the IC50 came out at 380 nM.

For `CCC(CC(=O)O)c1cccc(NC(=O)[C@@H](c2ccc(-c3cncc(OC(C)C)c3)cc2)C2CCCC2)c1C` (single isomer, unassigned) [Example 203], the IC50 was 16.7 nM.

For `Cc1c(CCC(=O)O)cccc1NC(=O)C(c1ccc(-c2cncc(C(F)(F)F)c2)cc1)C1CCC1` (racemic) [Example 54, (R/S) 3-{3-[(Cyclobutyl{4-[5-(trifluoromethyl)pyridin-3-yl]phenyl}acetyl)amino]-2-methylphenyl}propanoic acid], the IC50 was 27.3 nM.

Turning to `Cc1ncc(-c2ccc(C(C(=O)Nc3cccc(CCC(=O)O)c3C)C3CCCC3)cc2Cl)cc1Cl` (racemic) [Example 176, (R/S) 3-[3-({[3-chloro-4-(5-chloro-6-methylpyridin-3-yl)phenyl](cyclopentyl)acetyl}amino)-2-methylphenyl]propanoic acid], the IC50 was found to be 198 nM.

Turning to `COc1ccc(NC(=O)C(c2ccc(-c3cncc(C(F)(F)F)c3)cc2)C2CCCC2)c(C)c1CCC(=O)O` (racemic) [Example 40, (R/S) 3-{3-[(Cyclopentyl{4-[5-(trifluoromethyl)pyridin-3-yl]phenyl}acetyl)amino]-6-methoxy-2-methylphenyl}propanoic acid], the IC50 was determined as 28.2 nM.

`Cc1c(NC(=O)C(c2ccc(-c3cncc(C(F)(F)F)c3)c(F)c2)C2CCCC2)cccc1C(C)CC(=O)O` (single isomer, unassigned; stereoisomer 2) [Example 117, 3-{3-[(Cyclopentyl{3-fluoro-4-[5-(trifluoromethyl)pyridin-3-yl]phenyl}acetyl)amino]-2-methylphenyl}butanoic acid, Stereoisomer 2]: the IC50 is 15.6 nM.

Consider `Cc1ncc(-c2ccc(C(C(=O)Nc3cccc(CC(C)C(=O)O)c3C)C3CCCC3)cc2)cc1Cl` (single isomer, unassigned; stereoisomer 2) [Example 84, 3-[3-({[4-(5-Chloro-6-methylpyridin-3-yl)phenyl](cyclopentyl)acetyl}amino)-2-methylphenyl]-2-methylpropanoic acid, Stereoisomer 2], for which the IC50 stood at 41.1 nM.

Consider `Cc1c(NC(=O)C(c2ccc(-c3cncc(Cl)c3)c(F)c2)C2CCC2)cccc1C(C)CC(=O)O` (single isomer, unassigned; stereoisomer 2) [Example 151, 3-[3-({[4-(5-Chloropyridin-3-yl)-3-fluorophenyl](cyclobutyl)acetyl}amino)-2-methylphenyl]butanoic acid, Stereoisomer 2], for which the IC50 is 46.5 nM.

Turning to `COc1ccc(-c2ccc(C(C(=O)Nc3cccc(CCC(=O)O)c3C)C3CCCC3)cc2)cn1` (racemic) [Example 18, (R/S) 3-[3-({Cyclopentyl[4-(6-methoxypyridin-3-yl)-phenyl]acetyl}amino)-2-methylphenyl]propanoic acid], the IC50 was found to be 236 nM.

Consider `Cc1c(CCC(=O)O)cccc1NC(=O)C(c1ccc(-c2cncc(C(F)(F)F)c2)c(F)c1)C1CCCC1` (single isomer, unassigned; (+)) [Example 49, (+) 3-{3-[(Cyclopentyl{3-fluoro-4-[5-(trifluoromethyl)pyridin-3-yl]phenyl}acetyl)amino]-2-methylphenyl}propanoic acid], for which the IC50 amounted to 530 nM.

Consider `Cc1c(CCC(=O)O)cccc1NC(=O)C(c1ccc(-c2cncc(C(F)(F)F)c2)c(F)c1)C1CCCC1` (racemic) [Example 47, (R/S) 3-{3-[(Cyclopentyl{3-fluoro-4-[5-(trifluoromethyl)pyridin-3-yl]phenyl}acetyl)amino]-2-methylphenyl}propanoic acid], for which the IC50 was 15.9 nM.

In the case of `Cc1c(NC(=O)C(c2ccc(-c3cncc(Cl)c3)cc2)C2CCCC2)cccc1C(CC(=O)O)C1CC1` (mixture of isomers) [Example 110, (3R/S)-3-[3-({(2R/S)-2-[4-(5-chloropyridin-3-yl)phenyl]-2-cyclopentylacetyl}amino)-2-methylphenyl]-3-cyclopropylpropanoic acid], the IC50 amounted to 54.4 nM.

Turning to `COc1c(CCC(=O)O)cccc1NC(=O)C(c1ccc(-c2cncc(C(F)(F)F)c2)cc1)C1CCCC1` (stereo not drawn) [Example 213, 3-{3-[(cyclopentyl{4-[5-(trifluoromethyl)pyridin-3-yl]phenyl}acetyl)amino]-2-methoxyphenyl}propanoic acid], the IC50 was found to be 328 nM.

Consider `Cc1c(CCC(=O)O)cccc1NC(=O)C(c1ccc(-c2cncc(C(F)(F)F)c2)c(F)c1)C1CCC1` (single isomer, unassigned; (-)) [Example 208, (−) 3-{3-[(cyclobutyl{3-fluoro-4-[5-(trifluoromethyl)pyridin-3-yl]phenyl}acetyl)amino]-2-methylphenyl}propanoic acid, Single Enantiomer], for which the IC50 turned out to be 28.1 nM.

In the case of `CCc1cncc(-c2ccc(C(C(=O)Nc3cccc(C(CC(=O)O)C4CC4)c3C)C3CCCC3)cc2)c1` (mixture of isomers) [Example 114, (3R/S)-3-[3-({(2R/S)-2-cyclopentyl-2-[4-(5-ethylpyridin-3-yl)phenyl]acetyl}amino)-2-methylphenyl]-3-cyclopropylpropanoic acid], the IC50 came out at 29.5 nM.

Consider `Cc1c(CCC(=O)O)cccc1NC(=O)C(c1cc(F)c(-c2cncc(Cl)c2)cc1F)C1CCCC1` (racemic) [Example 178, (R/S) 3-[3-({[4-(5-chloropyridin-3-yl)-2,5-difluorophenyl](cyclopentyl)acetyl}amino)-2-methylphenyl]propanoic acid], for which the IC50 amounted to 269 nM.

In the case of `Cc1cc(-c2ccc(C(C(=O)Nc3cccc(CCC(=O)O)c3C)C3CCC3)cc2)cnc1C` (racemic) [Example 59, (R/S) 3-[3-({Cyclobutyl[4-(5,6-dimethylpyridin-3-yl)phenyl]acetyl}amino)-2-methylphenyl]propanoic acid], the IC50 is 193 nM.

On to `Cc1c(CCC(=O)O)cccc1NC(=O)C(c1ccc(-c2cncc(C(F)F)c2)c(F)c1)C1CCCC1` (racemic) [Example 50, (R/S) 3-{3-[(cyclopentyl{4-[5-(difluoromethyl)pyridin-3-yl]-3-fluorophenyl}acetyl)amino]-2-methylphenyl}propanoic acid], for which the IC50 came out at 42.9 nM.

With `CCOc1cncc(-c2ccc(C(C(=O)Nc3cc(F)cc(CCC(=O)O)c3C)C3CCCC3)cc2)c1` (racemic) [Example 170, (R/S) 3-[3-({[4-(5-ethoxypyridin-3-yl)phenyl](cyclopentyl)acetyl}amino)-5-fluoro-2-methylphenyl]propanoic acid], the IC50 worked out at 573 nM.

With `Cc1ncc(-c2ccc(C(C(=O)Nc3cc(F)cc(CCC(=O)O)c3C)C3CCCC3)cc2)cc1Cl` (racemic) [Example 169, (R/S) 3-[3-({[4-(5-chloro-6-methylpyridin-3-yl)phenyl](cyclopentyl)acetyl}amino)-5-fluoro-2-methylphenyl]propanoic acid], the IC50 amounted to 254 nM.

In the case of `Cc1c(CCC(=O)O)cccc1NC(=O)C(c1ccc(-c2ccc(C(F)(F)F)nc2)cc1)C1CCCC1` (single isomer, unassigned; (-)) [Example 5, (−) 3-{3-[(Cyclopentyl{4-[6-(trifluoromethyl)pyridin-3-yl]phenyl}acetyl)amino]-2-methylphenyl}propanoic acid], the IC50 stood at 795 nM.

`Cc1c(NC(=O)C(c2ccc(-c3cncc(C(F)(F)F)c3)c(F)c2)C2CCC2)cccc1C(C)CC(=O)O` (mixture of isomers) [Example 145, (3R/S)-3-(3-{[(2R/S)-2-Cyclobutyl-2-{3-fluoro-4-[5-(trifluoromethyl)pyridin-3-yl]phenyl}acetyl]amino}-2-methylphenyl)butanoic acid]: the IC50 was determined as 50.4 nM.

For `Cc1c(NC(=O)C(c2ccc(-c3cncc(Cl)c3)c(F)c2)C2CCCC2)cccc1C(C)CC(=O)O` (single isomer, unassigned; stereoisomer 1) [Example 126, 3-[3-({[4-(5-Chloropyridin-3-yl)-3-fluorophenyl](cyclopentyl)acetyl}amino)-2-methylphenyl]butanoic acid, Stereoisomer 1], the IC50 was 646 nM.

`Cc1c(NC(=O)C(c2ccc(-c3cncc(Cl)c3)c(F)c2)C2CCC2)cccc1C(C)CC(=O)O` (single isomer, unassigned; stereoisomer 1) [Example 150, 3-[3-({[4-(5-Chloropyridin-3-yl)-3-fluorophenyl](cyclobutyl)acetyl}amino)-2-methylphenyl]butanoic acid, Stereoisomer 1]: the IC50 amounted to 2620 nM.

For the compound `Cc1c(CCC(=O)O)cccc1NC(=O)C(c1ccc(-c2cncc(OC(C)C)c2)c(F)c1)C1CCCC1` (single isomer, unassigned; (-)) [Example 199, (−) 3-[3-({cyclopentyl[3-fluoro-4-(5-isopropoxypyridin-3-yl)phenyl]acetyl}amino)-2-methylphenyl]propanoic acid, Single Enantiomer], the IC50 was 30.2 nM.

For `Cc1c(NC(=O)C(c2ccc(-c3cncc(C(F)(F)F)c3)c(F)c2)C2CCC2)cccc1C(C)CC(=O)O` (single isomer, unassigned; stereoisomer 1) [Example 147, 3-{3-[(Cyclobutyl{3-fluoro-4-[5-(trifluoromethyl)pyridin-3-yl]phenyl}acetyl)amino]-2-methylphenyl}butanoic acid, Stereoisomer 1], the IC50 worked out at 1310 nM.

Usually IC50 stands for the concentration that gives 50% inhibition.
